The values below come from US20200023001A1, “GlycoFix (Structurally And Functionally Repaired Endothelial Glycocalyx)” (Northeastern University, priority 2018, published 2020).

The test has as its system HS component of RFPEC glycocalyx. Put plainly: HS component thickness and coverage by 10E4 HS immunofluorescence (Example 2). The test is classed as cell-based, rat. The protocol: RFPEC Culture. A rat fat pad endothelial cell (RFPEC) line^37 was utilized, originally isolated from rat epididymal fat pads by Dr. Mia Thi of Albert Einstein College of Medicine (Bronx, N.Y., USA). RFPECs were selected for their ability to naturally express a robust glycocalyx.^38 These ECs were cultured in tissue culture flasks at 37° C. and 5% CO2 in a humidified environment with Dulbecco's Modified Eagle's Medium (DMEM) supplemented with 10% fetal bovine serum (FBS) and 1% penicillin-streptomycin, all purchased from Thermo Fisher Scientific (Waltham, Mass., USA). For 3-(4,5-dimethylthiazol-2-yl)-5-(3-carboxymethoxyphenyl)-2-(4-sulfophenyl)-2H-tetrazolium (MTS) assays (Sigma-Aldrich Co., St Louis, Mo., USA), RFPECs were seeded at 3.7×10^4 cells/cm^2 in tissue culture-treated, 96-well plates (Falcon; Thermo Fisher Scientific) and imaged on a SpectraMax M3 plate reader to show cell viability and metabolic activity. For confocal imaging, RFPECs were seeded onto 12-mm diameter round glass cover slips (Thermo Fisher Scientific) at 1×10^4 cells/cm^2 in tissue culture-treated six-well plates (Falcon; Thermo Fisher Scientific). In both cases, the cells were allowed to grow for 48-60 hours to full confluence before starting the experiment.
RFPEC glycocalyx treatments. For control glycocalyx conditions, RFPEC cultures were grown in DMEM with 10% FBS and 1% penicillin-streptomycin. To generate dysfunctional glycocalyx conditions, the regular culture media of other RFPEC cultures was replaced with two variations of the modified media. For the collapsed glycocalyx configuration, the cells were grown in low serum media that consisted of DMEM with 1% penicillin-streptomycin and only 2% FBS.^1 For the degraded glycocalyx configuration, cultures were pretreated with DMEM/10^% FBS/1% penicillin-streptomycin containing a 2.5×10^−6 IU heparinase III (Hep III) (IBEX Pharmaceutical, Montreal, QC, Canada) enzyme for 2 hours, selectively degrading the HS glycosaminoglycans of the glycocalyx. To simulate a repaired glycocalyx state, the media containing Hep III was replaced with exogenous HS (Celsus Laboratories, Cincinnati, Ohio, USA) dissolved in DMEM/10% FBS/1% penicillin-streptomycin at 59 μg/mL. All RFPEC cultures, including those with untreated, collapsed, degraded, or repaired glycocalyx configurations, were exposed to 550 μg/mL of lyophilized and ultraviolet-sterilized PEG-AuNP during the 16-hour treatment time. Afterward, the free-floating particles were gently washed out before fixation to ensure that only the AuNP entrapped within the glycocalyx would be imaged. The red fluorescence detected from conjugated Alexa Fluor 647 was attributed to AuNP within the RFPEC monolayers (details are given in the “Confocal imaging and analysis” section).
Immunostaining. […]

Where [1] appears, read: RFPEC, Hep III 2 h then 16 h, with or without 59 μg/mL HS.

Values joined by “and” are separate entries in the source; they are usually repeats but may differ in a detail not shown here. Identical values can stand only once.

Take heparan sulfate [HS]: the “HS coverage of RFPEC, result in words (FIG. 10F legend)” value is “recovered”. Also, the “HS coverage as % of the baseline measurements” value (Hep III, Hep III + 59 μg/mL HS) was determined as 44%. Under setting [1], the HS component thickness is 1.2 μm and 1.21±0.31 μm; the “HS coverage of RFPEC surface” value is recorded as 33.1%+3.7%.
